Results reported in patent US4962109A, “Insecticidally and acaricidally active pyrimidine esters and intermediates therefor” (Imperial Chemical Industries PLC, priority 1985, dated 1990).

Key:
Assay type in all cases: in vivo
[1] = system: Diabrotica balteata (rootworm larvae); experiment: Residual test on rootworm larvae (DB), Filter paper/maize seed, mortality; conditions: 48 h, residual, 2 days, read-out: DB grading of mortality
Procedure: (§1) The activity of the Product was determined using a variety of insect pests. The Product was used in the form of liquid preparations containing 500, 250 or 100 parts per million (ppm) by weight of the Product. The preparations were made by dissolving the Product in acetone and diluting the solutions with water containing 0.01% by weight of a wetting agent sold under the trade name "LISSAPOL" NX until the liquid preparations contained the required concentration of the Product. "Lissapol" is a Registered Trade Mark.
(§2) The test procedure adopted with regard to each pest was basically the same and comprised supporting a number of the pests on a medium which was usually a host plant or a foodstuff on which the pests feed, and treating either or both the pests and the medium with the preparations. The mortality of the pests was then assessed at periods usually varying from one to three days after the treatment.
(§3) The results of the tests are given in Table III for each of the Products, at the rate in parts per million given in the second column as a grading of mortality designated as A, B or C wherein A indicates 80-100% mortality or knockdown, B indicates 50-79% mortality or knockdown and C indicates less than 50% mortality or knockdown.

Myzus persicae (aphids) = experiment: Contact test on aphids (MP), Chinese Cabbage leaf, mortality; conditions: 72 h, contact, 3 days, read-out: MP grading of mortality
Procedure: as §1, §2, §3

[2] = system: Blattella germanica (cockroach nymphs); experiment: Contact test on cockroach nymphs (BG/C), Plastic pot, mortality; conditions: 48 h, contact, 2 days, read-out: BG/C grading of mortality
Procedure: as §1, §2, §3
BG/C Blattella germanica

[3] = system: Musca domestica (houseflies - adults); experiment: Contact test on houseflies - adults (MD), Cotton wool/sugar, mortality; conditions: 72 h, 500 ppm, contact, 3 days, read-out: MD grading of mortality
Procedure: as §1, §2, §3

[4] = system: Heliothis virescens (tobacco budworm - larvae); experiment: Residual test on tobacco budworm larvae (HV), Cotton leaf, mortality; conditions: 48 h, read-out: HV grading of mortality
Procedure: as §1, §2, §3
(tobacco budworm - larvae)

[5] = system: Musca domestica (houseflies - adults); experiment: Knockdown test on houseflies - adults (MD/KD), Cotton wool/sugar; conditions: 500 ppm, 4 hours, read-out: MD/KD grading of knockdown
Procedure: as §1, §2
In the case of the species Musca domestica (housefly), additional tests to determine the knockdown effect of the compounds were performed. PG,163
as §3

[6] = system: Tetranychus urticae (spider mites - ova); experiment: Contact test on spider mites - ova (TUe), French bean leaf, mortality; conditions: 144 h, contact, 6 days, read-out: TUe grading of mortality
Procedure: as §1, §2, §3

[7] = system: Tetranychus urticae (spider mites - adult); experiment: Contact test on spider mites - adult (TUa), French bean leaf, mortality; conditions: 72 h, contact, 3 days, read-out: TUa grading of mortality
Procedure: as §1, §2, §3

[8] = system: Spodoptera exigua (lesser army worm - larvae); experiment: Residual test on lesser army worm larvae (SP), Cotton leaf, mortality; conditions: 48 h, residual, 2 days, read-out: SP grading of mortality
Procedure: as §1, §2, §3
(lesser army worm - larvae)

[9] = system: Nephotettix cincticeps (green leaf hopper - nymphs); experiment: Contact test on green leaf hopper nymphs (NC), Rice plant, mortality; conditions: 48 h, 500 ppm, contact, 2 days, read-out: NC grading of mortality
Procedure: as §1, §2, §3
NC Nephotettix cincticeps

CC(C)(C)c1ncc(C(C(=O)OCc2cccc(Oc3ccccc3)c2)C(C)(C)C)cn1 (racemic) [Compound 1, 3-phenoxybenzyl (RS)-2-[2-(1,1,-dimethylethyl)pyrimidin-5-yl]-3,3-dimethylbutanoate]
mortality at 500 ppm [1]: < 50%
mortality at 500 ppm (Myzus persicae (aphids)): 80 to 100%
mortality at 500 ppm [2]: < 50%
mortality at 500 ppm [3]: < 50%
mortality at 500 ppm [4]: 80 to 100%
pest or weed control at 500 ppm [5]: 80 to 100%
mortality at 500 ppm [6]: 80 to 100%
mortality at 500 ppm [7]: 80 to 100%
mortality at 500 ppm [8]: < 50%
mortality at 500 ppm [9]: 80 to 100%

CC(C)(C)c1ncc(C(C(=O)OC(C#N)c2cccc(Oc3ccccc3)c2)C(C)(C)C)cn1 (racemic) [Compound 2, (RS)-1-cyano-1-(3-phenoxphenyl)methyl (RS)-2-[2-(1,1-dimethylethyl)pyrimidin-5-yl]-3,3-dimethylbutanoate]
mortality at 500 ppm [1]: 80 to 100%
mortality at 500 ppm (Myzus persicae (aphids)): 80 to 100%
mortality at 500 ppm [2]: < 50%
mortality at 500 ppm [3]: 80 to 100%
mortality at 500 ppm [4]: 80 to 100%
pest or weed control at 500 ppm [5]: < 50%
mortality at 500 ppm [6]: < 50%
mortality at 500 ppm [7]: 80 to 100%
mortality at 500 ppm [8]: 80 to 100%
mortality at 500 ppm [9]: 80 to 100%

Cc1c(COC(=O)C(c2cnc(C(C)(C)C)nc2)C(C)(C)C)cccc1-c1ccccc1 (racemic) [Compound 3, 2-methyl-3-phenylbenzyl (RS)-2-[2-(1,1-dimethylethyl)pyrimidin-5-yl]-3,3-dimethylbutanoate]
mortality at 500 ppm [1]: < 50%
mortality at 500 ppm (Myzus persicae (aphids)): < 50%
mortality at 500 ppm [2]: < 50%
mortality at 500 ppm [3]: < 50%
mortality at 500 ppm [4]: 50 to 79%
pest or weed control at 500 ppm [5]: < 50%
mortality at 500 ppm [6]: 80 to 100%
mortality at 500 ppm [7]: 80 to 100%
mortality at 500 ppm [8]: 80 to 100%
mortality at 500 ppm [9]: 80 to 100%

C=CCc1c(F)c(F)c(COC(=O)C(c2cnc(C(C)(C)C)nc2)C(C)(C)C)c(F)c1F (racemic) [Compound 5, 4-(prop-2-en-1-yl)-2,3,5,6-tetrafluorobenzyl (RS)-2-[2-(1,1-dimethylethyl)pyrimidin-5-yl]-3,3-dimethylbutanoate]
mortality at 500 ppm [1]: < 50%
mortality at 500 ppm (Myzus persicae (aphids)): 80 to 100%
mortality at 500 ppm [2]: < 50%
mortality at 500 ppm [3]: < 50%
mortality at 500 ppm [4]: 50 to 79%
pest or weed control at 500 ppm [5]: 50 to 79%
mortality at 500 ppm [6]: < 50%
mortality at 500 ppm [7]: 80 to 100%
mortality at 500 ppm [8]: 80 to 100%
mortality at 500 ppm [9]: 50 to 79%

CC(C)(C)c1ncc(C(C(=O)OCN2C(=O)C3=C(CCCC3)C2=O)C(C)(C)C)cn1 (racemic) [Compound 6, N-3,4,5,6-tetrahydrophthalimidomethyl (RS)-2-[2-(1,1-dimethylethyl)pyrimidin-5-yl]-3,3-dimethylbutanoate]
mortality at 500 ppm [1]: 50 to 79%
mortality at 500 ppm (Myzus persicae (aphids)): < 50%
mortality at 500 ppm [2]: < 50%
mortality at 500 ppm [3]: < 50%
mortality at 500 ppm [4]: < 50%
pest or weed control at 500 ppm [5]: < 50%
mortality at 500 ppm [7]: 80 to 100%
mortality at 500 ppm [8]: < 50%
mortality at 500 ppm [9]: < 50%

CC(C)(C)c1ncc(C(C(=O)OCc2cccc(Oc3ccccc3)n2)C(C)(C)C)cn1 (racemic) [Compound 9, (6-phenoxypyrid-2-yl)methyl (RS)-2-[2-(1,1-dimethylethyl)pyrimidin-5-yl]-3,3-dimethylbutanoate]
mortality at 500 ppm [1]: 50 to 79%
mortality at 500 ppm (Myzus persicae (aphids)): 80 to 100%
mortality at 500 ppm [2]: 50 to 79%
mortality at 500 ppm [3]: 80 to 100%
mortality at 500 ppm [4]: 80 to 100%
pest or weed control at 500 ppm [5]: 80 to 100%
mortality at 500 ppm [6]: 80 to 100%
mortality at 500 ppm [7]: 80 to 100%
mortality at 500 ppm [8]: 80 to 100%
mortality at 500 ppm [9]: 80 to 100%

C[C@@H](OC(=O)[C@@H](c1cnc(C(C)(C)C)nc1)C(C)(C)C)c1cccc(Oc2ccccc2)n1 (racemic) [Compound 11, (RS)-1-(6-phenoxypyrid-2-yl)ethyl (RS)-2-[2-(1,1-dimethylethyl)pyrimidin-5-yl]-3,3-dimethylbutanoate]
mortality at 500 ppm [1]: 80 to 100%
mortality at 500 ppm (Myzus persicae (aphids)): 80 to 100%
mortality at 500 ppm [2]: < 50%
mortality at 500 ppm [3]: 80 to 100%
mortality at 500 ppm [4]: 80 to 100%
pest or weed control at 500 ppm [5]: 80 to 100%
mortality at 500 ppm [6]: 80 to 100%
mortality at 500 ppm [7]: 80 to 100%
mortality at 500 ppm [8]: 80 to 100%
mortality at 500 ppm [9]: 80 to 100%

CC(C)(C)c1ncc(C(C(=O)OCc2c(F)c(F)c(CC=CCl)c(F)c2F)C(C)(C)C)cn1 (racemic) [Compound 14, 4-(EZ-3-chloroprop-2-en-1-yl)-2,3,5,6-tetrafluorobenzyl (RS)-2-[(1,1-dimethylethyl)pyrimidin-5-yl)-3,3-dimethylbutanoate]
mortality at 500 ppm [1]: < 50%
mortality at 500 ppm (Myzus persicae (aphids)): 80 to 100%
mortality at 500 ppm [2]: < 50%
mortality at 500 ppm [3]: 80 to 100%
mortality at 500 ppm [4]: 80 to 100%
pest or weed control at 500 ppm [5]: 50 to 79%
mortality at 500 ppm [6]: < 50%
mortality at 500 ppm [7]: 80 to 100%
mortality at 500 ppm [8]: < 50%
mortality at 500 ppm [9]: 80 to 100%

CC(C)(C)c1ncc(C(C(=O)OCc2ccc(F)c(Cc3ccccc3)c2)C(C)(C)C)cn1 (racemic) [Compound 18, 3-benzyl-4-fluorobenzyl (RS)-2-[2-(1,1-dimethylethyl)pyrimidin-5-yl]-3,3-dimethylbutanoate]
mortality at 500 ppm [1]: 80 to 100%
mortality at 500 ppm (Myzus persicae (aphids)): 80 to 100%
mortality at 500 ppm [2]: < 50%
mortality at 500 ppm [3]: < 50%
mortality at 500 ppm [4]: 80 to 100%
pest or weed control at 500 ppm [5]: 80 to 100%
mortality at 500 ppm [6]: < 50%
mortality at 500 ppm [7]: 80 to 100%
mortality at 500 ppm [8]: 80 to 100%
mortality at 500 ppm [9]: 80 to 100%

CC(C)(C)c1ncc(C(C(=O)OCc2ccc(F)c(Oc3ccccc3)c2)C(C)(C)C)cn1 (racemic) [Compound 25, 4-fluoro-3-phenoxybenzyl (RS)-2-[2-(1,1-dimethylethyl)pyrimidin-5-yl]-3,3-dimethylbutanoate]
mortality at 500 ppm [1]: 50 to 79%
mortality at 500 ppm (Myzus persicae (aphids)): 80 to 100%
mortality at 500 ppm [2]: < 50%
mortality at 500 ppm [3]: < 50%
mortality at 500 ppm [4]: 80 to 100%
pest or weed control at 500 ppm [5]: 80 to 100%
mortality at 500 ppm [6]: 80 to 100%
mortality at 500 ppm [7]: 80 to 100%
mortality at 500 ppm [8]: 80 to 100%
mortality at 500 ppm [9]: 80 to 100%

CC(C)(C)c1ncc(C(C(=O)OCc2c(F)cccc2Cl)C(C)(C)C)cn1 (racemic) [Compound 26, 2-chloro-6-fluorobenzyl (RS)-2-[2-(1,1-dimethylethyl)pyrimidin-5-yl]-3,3-dimethylbutanoate]
mortality at 500 ppm [1]: 80 to 100%
mortality at 500 ppm (Myzus persicae (aphids)): 50 to 79%
mortality at 500 ppm [2]: < 50%
mortality at 500 ppm [3]: 80 to 100%
mortality at 500 ppm [4]: < 50%
pest or weed control at 500 ppm [5]: 80 to 100%
mortality at 500 ppm [6]: 80 to 100%
mortality at 500 ppm [7]: 80 to 100%
mortality at 500 ppm [8]: 80 to 100%
mortality at 500 ppm [9]: 80 to 100%

CC(C)(C)c1ncc(C(C(=O)OCc2c(F)c(F)c(CCl)c(F)c2F)C(C)(C)C)cn1 (racemic) [Compound 167, 4-chloromethyl-2,3,5,6-tetrafluorobenzyl (RS)-2-[2-(1,1-dimethylethyl)pyrimidin-5-yl]-3,3-dimethylbutanoate]
mortality at 500 ppm [1]: 80 to 100%
mortality at 500 ppm (Myzus persicae (aphids)): 80 to 100%
mortality at 500 ppm [2]: < 50%
mortality at 500 ppm [3]: < 50%
mortality at 500 ppm [4]: 80 to 100%
pest or weed control at 500 ppm [5]: < 50%
mortality at 500 ppm [6]: 80 to 100%
mortality at 500 ppm [7]: 80 to 100%
mortality at 500 ppm [8]: 80 to 100%

CCC(C)(C)C(C(=O)OCc1c(F)c(F)c(COC)c(F)c1F)c1cnc(C(C)(C)C)nc1 (racemic) [Compound 210, 4-methoxymethyl-2,3,5,6-tetrafluorobenzyl (RS)-2-[2-(1,1-dimethylethyl)-pyrimidin-5-yl]-3,3-dimethylpentanoate]
mortality at 100 ppm ([1]; 100 ppm): < 50%
mortality at 100 ppm (Myzus persicae (aphids); 100 ppm): < 50%
mortality at 100 ppm ([2]; 100 ppm): < 50%
mortality at 100 ppm [4]: < 50%
mortality at 100 ppm ([6]; 100 ppm): 80 to 100%
mortality at 100 ppm ([7]; 100 ppm): 80 to 100%
mortality at 100 ppm ([8]; 100 ppm): < 50%
